# Experimental data taken from ChEMBL document CHEMBL1201862, “PubChem BioAssay data set” (2004).
# Calls of active or inactive are those of the source.
# Tests used:
# SUMO E1/E2 = SUMO E1/E2 (Homo sapiens, UniProt P63279+Q9UBE0+Q9UBT2); experiment: SAR analysis of SUMOylation using HTRF in an in-Vitro dose response assay. [Related pubchem assays (depositor defined):AID2006, AID2011, AID2018, AID2069, AID2658]; format: functional
# [1] = biological target: T1, Tyrosine-protein phosphatase non-receptor type 7 (Homo sapiens, UniProt P35236); format: functional
# T1 sequence (P35236 whole entry): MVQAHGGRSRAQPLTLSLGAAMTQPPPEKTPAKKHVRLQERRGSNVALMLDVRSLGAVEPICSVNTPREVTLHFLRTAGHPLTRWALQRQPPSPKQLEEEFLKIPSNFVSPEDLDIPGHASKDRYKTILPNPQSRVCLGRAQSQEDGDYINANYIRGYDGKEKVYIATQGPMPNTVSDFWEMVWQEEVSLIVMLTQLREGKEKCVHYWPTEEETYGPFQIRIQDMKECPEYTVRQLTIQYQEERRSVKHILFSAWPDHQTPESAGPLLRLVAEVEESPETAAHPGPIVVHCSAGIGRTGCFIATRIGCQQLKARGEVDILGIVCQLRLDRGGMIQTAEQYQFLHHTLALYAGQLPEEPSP
# [2] = biological target: T2, Tyrosine-protein phosphatase non-receptor type 22 (Homo sapiens, UniProt Q9Y2R2); format: functional
# T2 sequence (Q9Y2R2 whole entry): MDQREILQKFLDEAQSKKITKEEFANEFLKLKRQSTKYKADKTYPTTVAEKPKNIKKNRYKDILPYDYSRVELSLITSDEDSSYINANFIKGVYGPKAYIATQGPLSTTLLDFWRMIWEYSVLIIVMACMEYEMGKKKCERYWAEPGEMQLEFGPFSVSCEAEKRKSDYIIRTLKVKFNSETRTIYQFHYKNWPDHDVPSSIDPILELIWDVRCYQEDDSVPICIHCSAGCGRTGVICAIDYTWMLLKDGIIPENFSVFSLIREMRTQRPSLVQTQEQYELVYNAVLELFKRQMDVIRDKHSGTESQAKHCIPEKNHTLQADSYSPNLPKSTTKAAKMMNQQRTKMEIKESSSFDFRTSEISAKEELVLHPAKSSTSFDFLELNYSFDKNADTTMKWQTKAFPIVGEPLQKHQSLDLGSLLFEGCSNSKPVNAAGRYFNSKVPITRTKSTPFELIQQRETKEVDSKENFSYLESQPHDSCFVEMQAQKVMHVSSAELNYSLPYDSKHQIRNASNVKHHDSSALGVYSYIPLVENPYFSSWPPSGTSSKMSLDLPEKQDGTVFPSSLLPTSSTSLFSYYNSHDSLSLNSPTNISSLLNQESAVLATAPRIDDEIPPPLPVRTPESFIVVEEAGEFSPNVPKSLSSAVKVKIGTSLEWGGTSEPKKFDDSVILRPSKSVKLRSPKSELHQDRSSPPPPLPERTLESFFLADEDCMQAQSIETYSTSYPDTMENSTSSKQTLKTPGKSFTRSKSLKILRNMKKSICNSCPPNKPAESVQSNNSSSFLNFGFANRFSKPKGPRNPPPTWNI
# [3] = biological target: T2, Tyrosine-protein phosphatase non-receptor type 22; format: functional; remark: listed apart in the source
# [4] = biological target: T3, Sphingosine 1-phosphate receptor 1 (Homo sapiens, UniProt P21453); experiment: Fluorescence-based counterscreen assay for S1P4 agonists: Cell-based dose response high throughput screening assay to identify agonists of the Sphingosine 1-Phosphate Receptor 1 (S1P1). [Related pubchem assays (depositor defined):AID1509, AID1523, AID1801, AID463107, AID463118, AID463119, AID463122, AID463123, AID463129, AID463225, AID504400, AID504460]; format: functional
# T3 sequence (P21453 whole entry): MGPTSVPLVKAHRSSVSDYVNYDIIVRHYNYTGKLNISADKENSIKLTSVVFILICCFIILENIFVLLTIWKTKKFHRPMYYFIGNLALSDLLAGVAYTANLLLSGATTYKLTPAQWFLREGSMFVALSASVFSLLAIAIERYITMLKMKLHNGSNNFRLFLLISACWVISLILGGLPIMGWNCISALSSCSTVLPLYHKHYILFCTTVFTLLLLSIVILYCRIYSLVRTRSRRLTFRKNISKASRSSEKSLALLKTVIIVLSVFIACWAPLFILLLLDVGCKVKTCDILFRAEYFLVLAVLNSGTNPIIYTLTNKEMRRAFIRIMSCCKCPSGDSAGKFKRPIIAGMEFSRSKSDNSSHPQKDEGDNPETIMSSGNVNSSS
# [5] = biological target: T4, Sphingosine 1-phosphate receptor 4 (Homo sapiens, UniProt O95977); experiment: Fluorescence dose response cell-based high throughput screening assay for agonists of the Sphingosine 1-Phosphate Receptor 4 (S1P4). [Related pubchem assays: 1509 (Primary screen.), 1523 (Confirmation screen in triplicates.)]; format: functional
# T4 sequence (O95977 whole entry): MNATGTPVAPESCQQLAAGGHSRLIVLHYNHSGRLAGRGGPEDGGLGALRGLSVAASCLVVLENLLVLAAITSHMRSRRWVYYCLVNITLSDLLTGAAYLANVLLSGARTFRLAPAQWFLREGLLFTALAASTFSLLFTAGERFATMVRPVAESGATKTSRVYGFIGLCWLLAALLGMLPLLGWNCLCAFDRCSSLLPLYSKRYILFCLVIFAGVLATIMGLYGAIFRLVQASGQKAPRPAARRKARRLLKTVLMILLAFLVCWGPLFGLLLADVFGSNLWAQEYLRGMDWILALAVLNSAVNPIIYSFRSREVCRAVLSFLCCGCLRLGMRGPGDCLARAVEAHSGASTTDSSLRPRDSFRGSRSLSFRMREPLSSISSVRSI
# Cytochrome P450 2C19 = Cytochrome P450 2C19 (Homo sapiens, UniProt P33261); experiment: Cytochrome panel assay with activity outcomes. Panel member name: p450-cyp2c19 Compounds with AC50 equal or less than 10 uM are considered active; format: functional; conditions: read-out: AC50
# Sequence of Cytochrome P450 2C19 (P33261 whole entry): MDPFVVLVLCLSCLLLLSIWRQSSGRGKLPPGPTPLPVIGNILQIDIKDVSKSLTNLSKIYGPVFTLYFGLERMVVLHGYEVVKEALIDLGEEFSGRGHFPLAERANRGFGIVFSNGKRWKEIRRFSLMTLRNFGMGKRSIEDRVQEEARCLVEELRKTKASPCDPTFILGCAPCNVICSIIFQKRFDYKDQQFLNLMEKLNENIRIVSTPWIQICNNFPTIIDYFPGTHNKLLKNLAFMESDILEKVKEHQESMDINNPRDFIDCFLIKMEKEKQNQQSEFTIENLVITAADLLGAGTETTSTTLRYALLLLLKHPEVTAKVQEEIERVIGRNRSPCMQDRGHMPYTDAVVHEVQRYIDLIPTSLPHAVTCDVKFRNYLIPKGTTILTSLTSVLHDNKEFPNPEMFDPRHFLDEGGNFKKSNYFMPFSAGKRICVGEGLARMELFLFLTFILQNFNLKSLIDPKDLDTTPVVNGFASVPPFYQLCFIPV
# Cytochrome P450 1A2 [6] = biological target: T5, Cytochrome P450 1A2 (Homo sapiens, UniProt P05177);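 further: PubChem cytochrome P450 panel assay, CYP1A2 panel member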
# T5 sequence (P05177 whole entry): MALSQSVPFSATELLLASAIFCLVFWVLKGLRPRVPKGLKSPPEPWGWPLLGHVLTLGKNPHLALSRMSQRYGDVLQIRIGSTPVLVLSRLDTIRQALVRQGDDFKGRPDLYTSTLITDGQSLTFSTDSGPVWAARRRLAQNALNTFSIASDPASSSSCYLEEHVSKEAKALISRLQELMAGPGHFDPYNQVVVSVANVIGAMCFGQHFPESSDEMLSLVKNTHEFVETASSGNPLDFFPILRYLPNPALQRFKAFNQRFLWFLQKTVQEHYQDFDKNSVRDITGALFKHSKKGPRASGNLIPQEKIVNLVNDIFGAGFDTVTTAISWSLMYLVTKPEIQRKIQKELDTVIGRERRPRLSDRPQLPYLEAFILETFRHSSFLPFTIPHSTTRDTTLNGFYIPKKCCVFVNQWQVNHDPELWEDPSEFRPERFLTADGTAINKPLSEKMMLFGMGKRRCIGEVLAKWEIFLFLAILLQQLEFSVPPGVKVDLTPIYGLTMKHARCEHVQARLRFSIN
# [7] = NIH-3T3 fibroblast cytotoxicity, dose response, cytotoxicity control, cell-based, fluorescence, Alamar Blue, secondary assay (AID 2327); format: functional;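 further: NIH-3T3 mouse fibroblasts cultured with fluconazole at 8 µg/mL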
# BJ [8] = experiment: cytotoxicity toward BJ-TERT fibroblasts, dose response, cell-based, RAS-independent, luminescence (AID 1933); format: functional; conditions: Homo sapiens
# BJ [9] = experiment: cells; format: functional, cell-based; conditions: Homo sapiens
# [10] = C. albicans growth with fluconazole, confirmation, fluorescence, retest (AID 2467); format: functional, cell-based
# BJ [11] = experiment: cytotoxicity toward BJ-TERT-LT-ST fibroblasts, dose response, cell-based, RAS-independent, luminescence (AID 1935); format: functional; conditions: Homo sapiens;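 further: BJ fibroblasts immortalized with TERT plus LT and ST oncogenes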
# [12] = cytotoxicity toward DRD oncogenic fibroblasts, dose response, cell-based, non-viral oncogenic, luminescence (AID 1934); format: functional; conditions: Homo sapiens
# [13] = biological target: T6, G-protein coupled receptor 55 (Homo sapiens, UniProt Q9Y2T6); experiment: GPR55 antagonists, SAR follow-up, counter-screen for GPR35 antagonist project, imaging, image-based (AID 2397); format: functional
# T6 sequence (Q9Y2T6 whole entry): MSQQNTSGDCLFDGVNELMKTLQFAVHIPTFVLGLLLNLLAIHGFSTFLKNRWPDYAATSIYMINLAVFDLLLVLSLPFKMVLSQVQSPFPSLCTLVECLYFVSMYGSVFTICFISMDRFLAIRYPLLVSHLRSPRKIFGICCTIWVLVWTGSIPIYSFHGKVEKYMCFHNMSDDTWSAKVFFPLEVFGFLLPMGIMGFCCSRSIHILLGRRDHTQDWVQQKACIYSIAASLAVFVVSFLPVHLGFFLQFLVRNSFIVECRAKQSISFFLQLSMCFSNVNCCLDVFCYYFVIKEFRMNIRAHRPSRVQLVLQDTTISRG
# INS1 = experiment: beta cell apoptosis inhibitors, cytokine rescue, dose response, luminescence, retest (AID 449756); format: functional, cell-based; conditions: Rattus norvegicus;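 further: cell death triggered by IL-1 beta plus TNF-alpha plus IFN-gamma mixture; protective hits raise ATP signal compared with cytokine alone wells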
# [14] = biological target: Sphingosine 1-phosphate receptor 5 (Homo sapiens, UniProt Q9H228); experiment: Late stage counterscreen assay for S1P4 antagonists: Fluorescence dose response cell-based screening assay for antagonists of the Sphingosine 1-Phosphate Receptor 5 (S1P5). [Related pubchem assays (depositor defined):AID1510, AID1524, AID1692, AID1853, AID2332, AID489009, AID489017]; format: functional
# [15] = biological target: Sphingosine 1-phosphate receptor 3 (Homo sapiens, UniProt Q99500); experiment: Late stage counterscreen assay for S1P4 antagonists: Fluorescence dose response cell-based screening assay for antagonists of the Sphingosine 1-Phosphate Receptor 3 (S1P3). [Related pubchem assays (depositor defined):AID1510, AID1524, AID1692, AID1853, AID2332, AID489009, AID489017]; format: functional
# Sequence of Sphingosine 1-phosphate receptor 3 (Q99500 whole entry): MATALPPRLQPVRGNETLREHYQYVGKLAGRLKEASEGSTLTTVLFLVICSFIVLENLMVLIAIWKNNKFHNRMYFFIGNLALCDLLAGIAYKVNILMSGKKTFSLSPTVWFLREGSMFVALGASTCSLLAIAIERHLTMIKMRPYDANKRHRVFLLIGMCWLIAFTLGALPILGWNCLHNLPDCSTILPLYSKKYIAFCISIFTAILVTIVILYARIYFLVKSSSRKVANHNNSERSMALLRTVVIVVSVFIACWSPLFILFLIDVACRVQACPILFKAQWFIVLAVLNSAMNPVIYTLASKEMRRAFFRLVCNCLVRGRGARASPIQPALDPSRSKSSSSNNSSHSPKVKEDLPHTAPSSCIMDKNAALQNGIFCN
# [16] = biological target: T3, Sphingosine 1-phosphate receptor 1; experiment: Late stage counterscreen assay for S1P4 antagonists: Fluorescence dose response cell-based screening assay for antagonists of the Sphingosine 1-Phosphate Receptor 1 (S1P1). [Related pubchem assays (depositor defined):AID1510, AID1524, AID1692, AID1853, AID2332, AID489009, AID489017]; format: functional
# [17] = biological target: T7, Heat shock factor protein 1 (Mus musculus, UniProt P38532); experiment: inhibition of MG132-induced HSE-luciferase signal, confirmation, cell-based, NIH3T3, luminescence, dose retest (AID 2382); format: functional;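 further: NIH3T3 fibroblasts with HSF1-driven luciferase reporter stressed by proteasome inhibitor MG132; luminescence from HSF1-driven luciferase expression after 8 hours of MG132 stress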
# T7 sequence (P38532 whole entry): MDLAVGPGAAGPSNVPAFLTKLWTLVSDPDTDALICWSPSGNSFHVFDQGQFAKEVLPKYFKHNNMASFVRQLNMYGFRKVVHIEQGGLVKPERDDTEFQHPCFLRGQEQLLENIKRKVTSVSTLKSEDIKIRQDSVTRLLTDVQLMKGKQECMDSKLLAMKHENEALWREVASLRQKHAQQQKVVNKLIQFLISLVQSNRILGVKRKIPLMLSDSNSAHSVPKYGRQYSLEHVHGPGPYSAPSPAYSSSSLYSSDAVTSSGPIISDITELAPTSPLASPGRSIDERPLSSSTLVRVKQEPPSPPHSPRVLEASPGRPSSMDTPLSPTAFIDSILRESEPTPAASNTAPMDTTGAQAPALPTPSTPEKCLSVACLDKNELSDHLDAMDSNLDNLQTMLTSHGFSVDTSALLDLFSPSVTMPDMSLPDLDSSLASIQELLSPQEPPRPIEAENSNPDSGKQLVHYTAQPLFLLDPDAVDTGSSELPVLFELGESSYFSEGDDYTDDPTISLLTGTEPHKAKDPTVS
# [18] = growth suppression of PTEN-null colon cells, dose response, cell-based, HCT116 PTEN knockout (AID 1047); format: functional;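 further: HCT116 colon tumor cells with PTEN knocked out; cells exposed to compound for 60 hours before readout; potency for loss of cell viability measured by luminescence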
# [19] = biological target: Sphingosine 1-phosphate receptor 2 (Homo sapiens, UniProt O95136); experiment: Late stage counterscreen assay for S1P4 antagonists: Fluorescence dose response cell-based screening assay for antagonists of the Sphingosine 1-Phosphate Receptor 2 (S1P2). [Related pubchem assays (depositor defined):AID1510, AID1524, AID1692, AID1853, AID2332, AID489009, AID489017]; format: functional
# Sequence of Sphingosine 1-phosphate receptor 2 (O95136 whole entry): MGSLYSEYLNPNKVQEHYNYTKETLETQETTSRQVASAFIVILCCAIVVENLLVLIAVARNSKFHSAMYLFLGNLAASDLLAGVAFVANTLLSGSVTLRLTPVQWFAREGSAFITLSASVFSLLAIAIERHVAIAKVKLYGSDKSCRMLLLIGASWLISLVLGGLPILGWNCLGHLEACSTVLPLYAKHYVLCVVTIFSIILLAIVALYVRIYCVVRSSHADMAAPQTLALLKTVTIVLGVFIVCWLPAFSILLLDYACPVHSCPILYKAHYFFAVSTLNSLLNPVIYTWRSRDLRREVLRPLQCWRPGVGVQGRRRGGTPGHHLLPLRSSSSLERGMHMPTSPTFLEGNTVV
# [20] = biological target: T4, Sphingosine 1-phosphate receptor 4; experiment: Late stage fluorescence dose response cell-based screening assay for antagonists of the Sphingosine 1-Phosphate Receptor 4 (S1P4). [Related pubchem assays: 1524 (Confirmation screen (S1P4 antagonists).), 1510 (Primary screen (S1P4 antagonists).), 1853 (Summary AID (S1P4 antagonists).), 1692 (Dose response screen (S1P4 antagonists).)]; format: functional
# [21] = growth suppression of beta-catenin-knockout colon cells, dose response, cell-based, HCT116, human colon tumor (AID 1045); format: functional;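 further: HCT116 colon tumor cells with beta catenin knocked out; cells exposed to compound for 60 hours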
# [22] = biological target: T4, Sphingosine 1-phosphate receptor 4; experiment: Fluorescence dose response cell-based high throughput screening assay for antagonists of the Sphingosine 1-Phosphate Receptor 4 (S1P4). [Related pubchem assays: 1524 (Confirmation in triplicates.), 1510 (Primary screen.)]; format: functional
# [23] = biological target: T3, Sphingosine 1-phosphate receptor 1; format: functional
# [24] = biological target: T6, G-protein coupled receptor 55; experiment: GPR55 agonists via beta-arrestin recruitment, primary screen, imaging, U2OS cells, beta-arrestin-GFP redistribution (AID 1961); format: functional
# Integrin alpha-4 = Integrin alpha-4 (Homo sapiens, UniProt P13612); experiment: VLA-4 integrin allosteric ligands, SAR follow-up, cell-based, LIBS antibody binding, flow cytometry (AID 488791); format: functional
# Sequence of Integrin alpha-4 (P13612 whole entry): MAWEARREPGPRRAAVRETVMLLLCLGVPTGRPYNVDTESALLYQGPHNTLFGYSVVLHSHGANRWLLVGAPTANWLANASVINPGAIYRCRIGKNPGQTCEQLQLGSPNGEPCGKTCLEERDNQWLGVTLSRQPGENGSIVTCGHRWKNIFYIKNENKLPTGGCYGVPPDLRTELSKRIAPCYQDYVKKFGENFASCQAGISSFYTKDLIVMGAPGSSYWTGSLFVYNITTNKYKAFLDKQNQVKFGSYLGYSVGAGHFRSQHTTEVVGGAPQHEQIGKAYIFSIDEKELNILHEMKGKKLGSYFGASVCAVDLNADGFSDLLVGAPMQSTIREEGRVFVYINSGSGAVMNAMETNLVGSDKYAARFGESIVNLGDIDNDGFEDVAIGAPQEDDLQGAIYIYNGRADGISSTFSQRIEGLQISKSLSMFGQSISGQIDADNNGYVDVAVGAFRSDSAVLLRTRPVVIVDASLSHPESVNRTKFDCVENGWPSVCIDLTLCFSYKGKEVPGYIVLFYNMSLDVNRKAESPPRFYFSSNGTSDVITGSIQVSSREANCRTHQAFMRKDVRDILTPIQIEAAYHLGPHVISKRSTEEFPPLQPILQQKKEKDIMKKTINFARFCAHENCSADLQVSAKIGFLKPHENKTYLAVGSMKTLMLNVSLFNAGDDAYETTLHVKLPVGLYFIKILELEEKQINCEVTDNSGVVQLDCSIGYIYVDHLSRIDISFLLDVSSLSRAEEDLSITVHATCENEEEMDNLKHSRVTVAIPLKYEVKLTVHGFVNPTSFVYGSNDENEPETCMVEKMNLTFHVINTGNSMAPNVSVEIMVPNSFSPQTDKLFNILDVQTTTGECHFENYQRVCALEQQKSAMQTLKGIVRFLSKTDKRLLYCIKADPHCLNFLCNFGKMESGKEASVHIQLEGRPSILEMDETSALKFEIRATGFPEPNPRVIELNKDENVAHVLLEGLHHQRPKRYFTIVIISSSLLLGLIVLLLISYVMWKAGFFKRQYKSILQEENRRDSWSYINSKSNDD
# Cytochrome P450 2D6 = Cytochrome P450 2D6 (Homo sapiens, UniProt P10635);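 further: CYP2D6 member of a cytochrome P450 panel assay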
# Sequence of Cytochrome P450 2D6 (P10635 whole entry): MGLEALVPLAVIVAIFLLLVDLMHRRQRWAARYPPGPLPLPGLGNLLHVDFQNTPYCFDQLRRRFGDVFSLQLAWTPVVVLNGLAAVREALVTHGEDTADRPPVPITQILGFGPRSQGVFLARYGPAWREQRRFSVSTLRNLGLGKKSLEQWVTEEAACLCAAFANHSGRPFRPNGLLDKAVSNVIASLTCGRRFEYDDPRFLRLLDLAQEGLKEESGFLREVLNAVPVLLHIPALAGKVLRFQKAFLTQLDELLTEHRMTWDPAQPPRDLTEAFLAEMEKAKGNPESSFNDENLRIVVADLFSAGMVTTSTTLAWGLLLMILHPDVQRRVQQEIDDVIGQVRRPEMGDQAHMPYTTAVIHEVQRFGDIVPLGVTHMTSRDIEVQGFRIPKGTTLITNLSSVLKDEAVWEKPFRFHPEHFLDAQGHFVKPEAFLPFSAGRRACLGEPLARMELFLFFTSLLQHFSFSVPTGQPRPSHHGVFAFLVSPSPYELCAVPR
# Cytochrome P450 1A2 [25] = biological target: T5, Cytochrome P450 1A2; remark: listed apart in the source
# Sequence of SUMO E1/E2 (Q9UBE0 whole entry): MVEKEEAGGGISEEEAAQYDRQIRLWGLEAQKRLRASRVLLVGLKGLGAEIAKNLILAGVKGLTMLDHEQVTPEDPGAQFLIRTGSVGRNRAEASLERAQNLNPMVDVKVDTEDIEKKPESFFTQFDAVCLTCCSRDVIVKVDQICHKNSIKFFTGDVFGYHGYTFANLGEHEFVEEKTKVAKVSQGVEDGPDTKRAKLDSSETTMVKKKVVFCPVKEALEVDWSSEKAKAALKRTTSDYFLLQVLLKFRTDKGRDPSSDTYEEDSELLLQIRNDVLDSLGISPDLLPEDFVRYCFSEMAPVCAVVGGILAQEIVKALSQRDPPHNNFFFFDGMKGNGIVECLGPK
# Sequence of SUMO E1/E2 (Q9UBT2 whole entry): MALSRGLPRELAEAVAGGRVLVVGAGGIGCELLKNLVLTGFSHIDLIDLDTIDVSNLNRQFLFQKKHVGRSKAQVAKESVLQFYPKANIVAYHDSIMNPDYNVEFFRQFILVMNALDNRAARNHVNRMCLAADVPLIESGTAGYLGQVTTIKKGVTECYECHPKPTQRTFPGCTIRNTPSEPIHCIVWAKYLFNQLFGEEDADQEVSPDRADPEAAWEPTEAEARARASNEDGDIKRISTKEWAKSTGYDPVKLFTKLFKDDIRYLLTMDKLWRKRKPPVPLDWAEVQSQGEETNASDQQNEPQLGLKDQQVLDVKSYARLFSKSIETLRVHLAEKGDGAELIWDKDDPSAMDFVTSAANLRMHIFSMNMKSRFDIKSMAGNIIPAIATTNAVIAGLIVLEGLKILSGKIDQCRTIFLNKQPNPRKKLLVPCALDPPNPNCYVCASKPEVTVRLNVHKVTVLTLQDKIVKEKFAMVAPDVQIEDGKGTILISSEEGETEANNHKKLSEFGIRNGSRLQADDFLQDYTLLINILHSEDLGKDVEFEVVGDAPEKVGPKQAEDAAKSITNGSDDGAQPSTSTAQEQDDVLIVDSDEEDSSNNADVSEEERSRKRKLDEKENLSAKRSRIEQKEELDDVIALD
# Sequence of SUMO E1/E2 (P63279 whole entry): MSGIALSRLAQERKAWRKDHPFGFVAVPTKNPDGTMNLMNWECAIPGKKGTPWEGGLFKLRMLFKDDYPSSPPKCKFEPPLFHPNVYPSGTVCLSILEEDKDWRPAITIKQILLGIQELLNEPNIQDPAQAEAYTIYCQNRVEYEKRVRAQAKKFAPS
compound,measurement,setting,value
S=c1[nH]nc(-c2cc(-c3ccccc3)[nH]n2)n1N=Cc1ccc(Cl)c(Cl)c1,IC50,SUMO E1/E2,> 100 µM (inactive)
O=C(c1ccncc1)N1CCN(C(=O)c2ccncc2)CC1,IC50,[1],> 79.4 µM (inactive)
same,IC50,[2],> 79.4 µM (inactive)
same,IC50,[3],> 79.4 µM (inactive)
COC(=O)c1c(-n2c(C)cc(C=O)c2C)sc2c1CCCC2,EC50,[4],> 49.8 µM (inactive)
same,EC50,[5],> 49.8 µM (not active)
same,AC50,Cytochrome P450 2C19,0.794 µM (inconclusive)
same,AC50,Cytochrome P450 1A2 [6],5.01 µM (inconclusive)
Cn1cc(/C=C/c2cc[n+](C)cc2)c2cc(Cl)ccc21,EC50,[7],> 150 µM (inactive)
same,EC50,BJ [8],9.8 µM (active)
same,EC50,BJ [9],16.2 µM (active)
same,EC50,[10],1.29 µM (active)
same,EC50,BJ [11],> 150 µM (not active)
same,EC50,[12],22.1 µM (inconclusive)
same,IC50,[13],3.42 µM (active)
same,AC50,INS1,4.33 µM (active)
CCOC(=O)/C(=C\c1ccc(OC(F)F)cc1)C1=Nn2c(nnc2-c2ccc(Cl)cc2)SC1,IC50,[14],0.034 µM (active)
same,IC50,[15],0.494 µM (active)
same,IC50,[16],0.351 µM (active)
same,EC50,[17],6.62 µM (active)
same,EC50,[18],10.2 µM (active)
same,IC50,[19],0.614 µM (active)
same,IC50,[20],0.342 µM (active)
same,EC50,[21],9.67 µM (active)
same,IC50,[22],0.168 µM (active)
same,IC50,[23],6.1 µM (active)
same,EC50,[24],> 32 µM (inactive)
same,EC50,Integrin alpha-4,11.8 µM (active)
same,AC50,INS1,4.22 µM (active)
COc1ccccc1CN1CC2(CCN(S(C)(=O)=O)CC2)C1,AC50,Cytochrome P450 2D6,inconclusive
same,AC50,Cytochrome P450 1A2 [25],inconclusive
